From patent publication US7887833B2, “Amphiphilic compounds and vesicles liposomes for organ-specified drug targeting” (Ben-Gurion University of the Negev Research and Development …, priority 2001, dated 2011)

Experiments:
Type in all cases: biochemical
cholinesterases (ChE) = assay: pH-stat method: hydrolysis of headgroups by cholinesterases of human serum; settings: 100 mM solutions diluted 100 times, pH 9.0, human serum 0.1 ml, 15 min
Description: The ability of cholinesterases (ChE) to hydrolyze Derivatives 1 and 2 was assessed using two methods:
(i) The pH-stat method: Hydrolysis of the acetylcholine ester headgroups of Derivative 1, as well as of acetylcholine (ACh), by cholinesterases (ChE), releases acetic acid into the solution. Hydrolysis of Derivative 2 by ChE releases choline and a free fatty acid. In both cases, the release of acid results in pH drop. The hydrolysis rate of these compounds can be determined by measuring the amount of NaOH needed to neutralize the acid generated during hydrolysis. Three solutions, 100 mM concentration each of acetylcholine (ACh) in water and of Derivatives 1 and 2 in methanol were prepared, then diluted 100 times with water (10 ml), and their pH was adjusted to pH 9.0 using 0.1M NaOH. The pH was monitored until it remained stable for 10 min (baseline). At this stage, human serum (0.1 ml) containing ChE, was added and each of the solutions was titrated with 0.05M NaOH in order to maintain pH 9.0. The amount of the NaOH needed to maintain constant pH was measured during 15 min. […] Thus vesicles prepared from Derivative 1 are expected to disrupt, in presence of ChE, faster than vesicles made from Derivative 2.

[1] = system: acetylcholinesterase (ACHE); assay: Competition assay using the Elman's method (acetylthiocholine/DTNB); settings: acetylthiocholine 1.5 mM, DTNB 0.5 mM, 3 units AChE, phosphate-buffered saline
Description: (ii) Competition assay using the Elman's method: Hydrolysis of acetylthiocholine (ATC) releases thiocholine, which reduces 5,5′-dithiobis-2-nitrobenzoate (DTNB) giving rise to a yellow coloring of the solution. […] A series of solutions with varying concentrations of Derivatives 1 and 2 in methanol together with acetylthiocholine (1.5 mM), DTNB (0.5 mM), and with 3 units of acetylcholinesterase (ACHE) in phosphate-buffered saline, was prepared. The rate of appearance of yellow color was determined in each of the reaction mixtures. […] Thus, vesicles prepared from Derivative 1 are expected to disrupt faster than vesicles prepared from Derivative 2, when exposed to cholinesterases.

[2] = target: T1, aromatic L-amino acid decarboxylase (AADC) (Rattus norvegicus, UniProt P14173); assay: Decarboxylation of headgroup by AADC from rat liver homogenate (HPLC, electrochemical detector)
T1 construct: rat liver homogenate served as the source for AADC; from tissue; host or cells: rat liver homogenate
T1 sequence (P14173 1-480): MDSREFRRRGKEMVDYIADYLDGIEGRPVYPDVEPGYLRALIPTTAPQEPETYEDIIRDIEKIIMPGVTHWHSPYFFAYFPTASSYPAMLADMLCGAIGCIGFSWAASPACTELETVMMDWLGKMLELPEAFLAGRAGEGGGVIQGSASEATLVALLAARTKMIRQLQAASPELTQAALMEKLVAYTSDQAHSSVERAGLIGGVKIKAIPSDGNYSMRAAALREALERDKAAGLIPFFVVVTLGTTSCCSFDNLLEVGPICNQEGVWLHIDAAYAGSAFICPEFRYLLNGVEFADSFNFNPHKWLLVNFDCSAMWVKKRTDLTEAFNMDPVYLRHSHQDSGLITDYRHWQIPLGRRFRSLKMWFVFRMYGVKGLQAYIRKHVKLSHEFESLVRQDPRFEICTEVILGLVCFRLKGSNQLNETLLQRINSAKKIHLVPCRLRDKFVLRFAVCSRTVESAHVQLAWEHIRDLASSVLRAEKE
Text: Derivative 5 contains an aromatic amino acid moiety as a headgroup. This negatively charged headgroup, at physiological pH, may be a suitable substrate for the enzyme aromatic L-amino acid decarboxylase (AADC). Upon exposure to AADC, the headgroup of Derivative 5 should be converted to an amine thus changing the nature of the headgroup (from a carboxyl to amine) in a way that can result in destabilization of vesicles made from Derivative 5.
To test whether Derivative 5 could serve as a substrate for AADC, rat liver homogenate served as the source for AADC and the following experiment was carried out. A methanol solution (0.005 ml) of Derivative 5 was added to a reaction mixture (0.5 ml final volume) containing potassium phosphate (50 mM, pH=7.0), dithiothreitol (1 mM), EDTA (0.2 mM), pyridoxal 5′-phosphate (0.01 mM), pargylin (0.1 mM), and rat liver homogenate adjusted to 5 mg protein. The final concentration of Derivative 5 was 1 mM. The reaction mixture was incubated at 37° C. for 60 min followed by the addition of 0.05 ml perchloric acid (70%) and neutralized by 4M KOH. The mixture was then centrifuged at 20.000 g for 10 min at 4° C. and 0.1 ml of the supernatant was injected into a C18-HPLC column. The presence of the amine, which was formed during the reaction, was determined by electrochemical detector. […]

SMILES | hydrolysis rate (NaOH needed to maintain constant pH) (cholinesterases (ChE)) | competition with acetylthiocholine for the hydrolyzing enzyme (rate of appearance of yellow color) [1] | decarboxylation to the amine (HPLC peak) ([2]; 1 mM, rat liver homogenate 5 mg protein, 37° C., 60 min) | amine peak in presence of benserazide ([2]; benserazide 5×10^-5 M added to the reaction mixture)
CCCCCC(OC(=O)C[N+](C)(C)CCOC(C)=O)C(O)CC=CCCCCCCCC(=O)NCCNC(=O)CCCCCCCC=CCC(O)C(CCCCC)OC(=O)C[N+](C)(C)CCOC(C)=O (stereo not shown) [Derivative 1] | faster hydrolysis | higher extent | – | –
CCCCCC(OC(=O)CNc1ccc(CC(N)C(=O)O)cc1)C(O)CC=CCCCCCCCC(=O)NCCNC(=O)CCCCCCCC=CCC(O)C(CCCCC)OC(=O)CNc1ccc(CC(N)C(=O)O)cc1 (stereo not shown) [Derivative 5] | – | – | decarboxylated | not detectable
